# Laboratory results reported in US9902986B2, “Enterobactin conjugates and uses thereof” (Massachusetts Institute of Technology, priority 2013, dated 2018).
# System: E. coli ATCC 33475 (ent-)
# Format: cell-based, Escherichia coli
# Protocol: General microbiology methods are as described herein or according to processes known in the art. […] Bacterial growth was assayed by measuring OD600 using a BioTek Synergy HT plate reader. Each well condition was prepared in duplicate and three independent replicates of each assay were conducted on different days. The resulting mean OD600 are reported and the error bars are the standard deviation of the mean obtained from the three independent replicates.
# Three non-pathogenic E. coli strains were employed that are defective in enterobactin synthesis, enterobactin transport, or ferric enterobactin utilization in growth recovery assays. E. coli ATCC 33475 (ent-) cannot biosynthesize enterobactin, but retains the capacity to import and metabolize the siderophore.^71 E. coli H1187 (fepA-) lacks the outer membrane enterobactin receptor. E. coli K-12 JW0576 (fes-) can accumulate ferric enterobactin, but cannot release the iron because it is deficient in the enterobactin esterase Fes. As a result of these defects in iron metabolism, all three strains grow poorly under conditions of iron limitation.^71 The iron chelator 2,2′-dipyridyl (dipyridyl, DP) was used to generate iron-deficient conditions and promote expression of siderophore transport machinery in the growth recovery assays.
Structure (SMILES),effect on E. coli growth in the absence of DP,also measured
"CN[C@H](CC(C)C)C(=O)N[C@H]1C(=O)N[C@@H](CC(N)=O)C(=O)N[C@H]2C(=O)N[C@H]3C(=O)N[C@H](C(=O)N[C@H](C(=O)O)c4cc(O)cc(O)c4-c4cc3ccc4O)[C@H](O)c3ccc(c(Cl)c3)Oc3cc2cc(c3O[C@@H]2OC(CO)[C@@H](O)C(O)C2O[C@H]2CC(C)(N)[C@H](O)C(C)O2)Oc2ccc(cc2Cl)[C@H]1O (stereo partly shown) [vancomycin, reference compound]",–,activity against E. coli (over the concentration range employed): inactive against E. coli
"O=C(NCCCCCC(=O)N1CCN(c2cc3c(cc2F)c(=O)c(C(=O)O)cn3C2CC2)CC1)c1cc(O)c(O)c(C(=O)N[C@H]2COC(=O)[C@@H](NC(=O)c3cccc(O)c3O)COC(=O)[C@@H](NC(=O)c3cccc(O)c3O)COC2=O)c1 [conjugate 40, 7-(4-(6-(3-(((3S,7S,11S)-7,11-Bis(2,3-dihydroxybenzamido)-2,6,10-trioxo-1,5,9-trioxacyclododecan-3-yl)carbamoyl)-4,5-dihydroxybenzamido)hexanoyl)piperazin-yl)-1-cyclopropyl-6-fluoro-4-oxo-1,4-dihydroquinoline-3-carboxylic acid]",concentration-dependent inhibition of E. coli growth,–
"O=C(NCCOCCOCCOCCC(=O)N1CCN(c2cc3c(cc2F)c(=O)c(C(=O)O)cn3C2CC2)CC1)c1cc(O)c(O)c(C(=O)N[C@H]2COC(=O)[C@@H](NC(=O)c3cccc(O)c3O)COC(=O)[C@@H](NC(=O)c3cccc(O)c3O)COC2=O)c1 [conjugate 35, 7-(4-(1-(3-(((3S,7S,11S)-7,11-Bis(2,3-dihydroxybenzamido)-2,6,10-trioxo-1,5,9-trioxacyclododecan-3-yl)carbamoyl)-4,5-dihydroxyphenyl)-1-oxo-5,8,11-trioxa-2-azatetradecan-14-oyl)piperazin-1-yl)-1-cyclopropyl-6-fluoro-4-oxo-1,4-dihydroquinoline-3-carboxylic acid]",concentration-dependent inhibition of E. coli growth,–
"O=C(NCCOCCOCCOCCNC(=O)c1cc2cc3c4c(c2oc1=O)CCCN4CCC3)c1cc(O)c(O)c(C(=O)N[C@H]2COC(=O)[C@@H](NC(=O)c3cccc(O)c3O)COC(=O)[C@@H](NC(=O)c3cccc(O)c3O)COC2=O)c1 [conjugate 34, N^3-((3S,7S,11S)-7,11-Bis(2,3-dihydroxybenzamido)-2,6,10-trioxo-1,5,9-trioxacyclododecan-3-yl)-4,5-dihydroxy-N^1-(1-oxo-1-(11-oxo-2,3,5,6,7,1-hexahydro-1H-pyrano[2,3-f]pyrido[3,2,1-ij]quinolin-10-yl)-5,8,11-trioxa-2-azatridecan-13-yl)isophthalamide]",–,toxicity to E. coli (under iron limitation): no toxicity
